Where “and” joins values, the source holds several entries; their conditions need not be identical. Equal entries are not always repeated. Structures can show the parent of a compound that is named as a salt.

What all share (type): in vivo
Assay [1] deals with Echinochloa oryzoides (Ard.) Fritsch. As to the kind of experiment: Preemergence weed control under flooded paddy conditions, ECHORC (Watergrass (Calif.)). For herbicidal effect rating, ECHORC: meaning of each grade not given here. Conditions: for ECHORC: herbicidal effect rating 0-9, three to four weeks after treatment.
Assay [2] deals with Monochoria vaginalis, Presl. Description: Preemergence weed control under flooded paddy conditions, MOOVA (Monochoria). For herbicidal effect rating, MOOVA: meaning of each grade not given here. Conditions: for MOOVA: preemergence weeds, herbicidal effect rating 0-9, three to four weeks after treatment; for MOOVA / MOOVA herbicidal rating: flooded paddy; for MOOVA herbicidal rating: preemergence, rated three to four weeks after treatment.
The next assay relates to Cyperus iria. As to the kind of experiment: Preemergence weed control under flooded paddy conditions, CYPIR (Rice Flatsedge). For herbicidal effect rating, CYPIR: meaning of each grade not given here. As to conditions: flooded paddy; for CYPIR: herbicidal effect rating 0-9, three to four weeks after treatment; for CYPIR herbicidal rating / herbicidal effect rating, CYPIR: rated three to four weeks after treatment.
The subject of assay [3] is Cyperus serotinus, Rottb. As to the kind of experiment: Preemergence weed control under flooded paddy conditions, CYPSE (Flatsedge). For herbicidal effect rating, CYPSE: meaning of each grade not given here. Conditions: for CYPSE: herbicidal effect rating 0-9, three to four weeks after treatment; for CYPSE herbicidal rating / herbicidal effect rating, CYPSE: rated three to four weeks after treatment.
A further assay deals with Sagittaria pygmaea, L. Description: Preemergence weed control under flooded paddy conditions, SAGPY (Arrowhead (Pygmaea)). For herbicidal effect rating, SAGPY: meaning of each grade not given here. As to conditions: for SAGPY: herbicidal effect rating 0-9, three to four weeks after treatment.
Where [4] appears, read: 0.0620 kg/ha, preemergence weeds, flooded paddy.
Where [5] appears, read: 0.1250 kg/ha, preemergence weeds, flooded paddy.
Setting [6] is: 0.2500 kg/ha, preemergence weeds, flooded paddy.
Where [7] appears, read: 0.0620 kg/ha, preemergence weeds.
Where [8] appears, read: 0.1250 kg/ha, preemergence weeds.
The mark [9] stands for this setting: 0.2500 kg/ha, preemergence weeds.
Where [10] appears, read: 0.0320 kg/ha, preemergence weeds, flooded paddy.
[11] abbreviates: 0.0320 kg/ha, preemergence weeds.
[12] abbreviates: 0.0320 kg/ha, preemergence, flooded paddy, rated three to four weeks after treatment.
Where [13] appears, read: 0.0620 kg/ha, preemergence, flooded paddy, rated three to four weeks after treatment.
[14] abbreviates: 0.1250 kg/ha, preemergence, flooded paddy, rated three to four weeks after treatment.
[15] abbreviates: 0.2500 kg/ha, preemergence, flooded paddy, rated three to four weeks after treatment.
The mark [16] stands for this setting: Rate 0.0320 kg/ha, preemergence weeds, flooded paddy, rated three to four weeks after treatment.
[17] abbreviates: Rate 0.0620 kg/ha, preemergence weeds, flooded paddy, rated three to four weeks after treatment.
Setting [18] is: Rate 0.1250 kg/ha, preemergence weeds, flooded paddy, rated three to four weeks after treatment.
[19] abbreviates: Rate 0.2500 kg/ha, preemergence weeds, flooded paddy, rated three to four weeks after treatment.
The mark [20] stands for this setting: Rate 0.0320 kg/ha, preemergence weeds.
The mark [21] stands for this setting: Rate 0.0620 kg/ha, preemergence weeds.
The mark [22] stands for this setting: Rate 0.1250 kg/ha, preemergence weeds.
[23] abbreviates: Rate 0.2500 kg/ha, preemergence weeds.
Setting [24] is: Rate 0.0320 kg/ha, preemergence, flooded paddy, rated three to four weeks after treatment.
[25] abbreviates: Rate 0.0620 kg/ha, preemergence, flooded paddy, rated three to four weeks after treatment.
[26] abbreviates: Rate 0.1250 kg/ha, preemergence, flooded paddy, rated three to four weeks after treatment.
The mark [27] stands for this setting: Rate 0.2500 kg/ha, preemergence, flooded paddy, rated three to four weeks after treatment.
[28] abbreviates: Rate 0.0320 kg/ha, preemergence.
Where [29] appears, read: Rate 0.0620 kg/ha, preemergence.
The mark [30] stands for this setting: Rate 0.1250 kg/ha, preemergence.
Setting [31] is: Rate 0.2500 kg/ha, preemergence.

For the compound `Cn1c(C(F)(F)F)cc(=O)n(-c2ccc3snc(C(SCCO)SCCO)c3c2)c1=O` [Example 419, 1,2-Benzisothiazole-3-carboxaldehyde, 5-[3,6-dihydro-3-methyl-2,6-dioxo-4-(trifluoromethyl)-1(2H)-pyrimidinyl]-, 3-[bis(2-hydroxyethyl)dithioacetal]], the ECHORC in assay [1] (setting [4]) is 0.0; in assay [1] (setting [5]) it was 2.0; in assay [1] (setting [6]) it was 7.0. The MOOVA in assay [2] (0.0620 kg/ha) is listed as 0.0; in assay [2] (0.1250 kg/ha), 4.0; in assay [2] (0.2500 kg/ha), 5.0. The CYPIR was 0.0 in the assay with Cyperus iria (setting [7]), 3.0 in the assay with Cyperus iria (setting [8]) and 6.0 with Cyperus iria (setting [9]). Besides, the CYPSE in assay [3] (setting [7]), in assay [3] (setting [8]) and in assay [3] (setting [9]) was 0.0 each time.

In the case of `Cn1c(C(F)(F)F)cc(=O)n(-c2ccc3snc(C(=O)NOS(=O)(=O)O)c3c2)c1=O` [Example 417, 1,2-Benzisothiazole-3-carbohydroxamic acid, 5-[3,6-dihydro-3-methyl-2,6-dioxo-4-(trifluoromethyl)-1(2H)-pyrimidinyl]-, hydrogen sulfate (ester)], the ECHORC in assay [1] (setting [10]) is listed as 0.0; in assay [1] (setting [4]) it was 0.0; in assay [1] (setting [5]), 3.0; in assay [1] (setting [6]), 3.0. Moreover, the MOOVA turned out to be 6.0 in assay [2] (0.0320 kg/ha), 6.0 in assay [2] (0.0620 kg/ha), 9.0 in assay [2] (0.1250 kg/ha) and 9.0 in assay [2] (0.2500 kg/ha). The CYPIR came out at 4.0 with Cyperus iria (setting [11]), 4.0 in the assay with Cyperus iria (setting [7]), 5.0 in the assay on Cyperus iria (setting [8]) and 6.0 with Cyperus iria (setting [9]). The same compound came in with a CYPSE in assay [3] (setting [8]) of 3.0.

As to `COC(=O)[C@@H](C)Oc1ccc(C)cc1-c1nsc2ccc(-n3c(=O)cc(C(F)(F)F)n(C)c3=O)cc12` [Example 14, Methyl 2-{{2-{5-[3,6-dihydro-3-methyl-2,6-dioxo-4-(trifluoromethyl)-1(2H)-pyrimidinyl]-1,2-benzisothiazol-3-yl}-p-tolyl}oxy}propionate, (R)-], in the assay on Sagittaria pygmaea, L. (in vivo), the “herbicidal effect rating, SAGPY” value is 0.0. Besides, in assay [1] (in vivo), the “herbicidal effect rating, ECHORC” value is 7.5 and 6.5 and 5.0 and 4.0. In assay [2] (in vivo), the “herbicidal effect rating, MOOVA” value stood at 9.0.

Consider `CC(C)N(C(C)C)S(=O)(=O)NC(=O)C(C)(C)c1nsc2ccc(-n3c(=O)cc(C(F)(F)F)n(C)c3=O)cc12` [Example 511, 1,2-Benzisothiazole-3-acetamide, 5-[3,6-dihydro-3-methyl-2,6-dioxo-4-(trifluoromethyl)-1(2H)-pyrimidinyl]-N-(diisopropylsulfamoyl)-alpha, alpha-dimethyl-], for which the SAGPY herbicidal rating in the assay on Sagittaria pygmaea, L. (setting [12]) is 0.0; in the assay on Sagittaria pygmaea, L. (setting [13]), 0.0; in the assay with Sagittaria pygmaea, L. (setting [14]), 0.0; in the assay on Sagittaria pygmaea, L. (setting [15]), 7.0. Also, the ECHORC herbicidal rating in assay [1] (setting [12]) was found to be 0.0; in assay [1] (setting [13]), 2.0; in assay [1] (setting [14]), 5.0; in assay [1] (setting [15]) it was 7.0. Further, the CYPIR herbicidal rating in the assay on Cyperus iria (0.0320 kg/ha, preemergence) came to 0.0; with Cyperus iria (0.0620 kg/ha, preemergence), 0.0; in the assay on Cyperus iria (0.1250 kg/ha, preemergence), 2.0; in the assay with Cyperus iria (0.2500 kg/ha, preemergence), 7.0. In addition, the CYPSE herbicidal rating turned out to be 0.0 in assay [3] (0.0320 kg/ha, preemergence); 0.0 in assay [3] (0.0620 kg/ha, preemergence); 3.0 in assay [3] (0.1250 kg/ha, preemergence); 3.0 in assay [3] (0.2500 kg/ha, preemergence).

Regarding `CC(=O)OCCCSC(SCCCOC(C)=O)c1nsc2ccc(-n3c(=O)cc(C(F)(F)F)n(C)c3=O)cc12` [Example 426, 1,2-Benzisothiazole-3-carboxaldehyde, 5-[3,6-dihydro-3-methyl-2,6-dioxo-4-(trifluoromethyl)-1(2H)-pyrimidinyl]-, 3-[bis(3-hydroxypropyl)dithioacetal], diacetate (diester)], the SAGPY amounted to 0.0 in the assay on Sagittaria pygmaea, L. (setting [10]); 2.0 in the assay with Sagittaria pygmaea, L. (setting [4]); 4.0 with Sagittaria pygmaea, L. (setting [5]); 4.0 in the assay with Sagittaria pygmaea, L. (setting [6]). Besides, the ECHORC came out at 5.0 in assay [1] (setting [10]), 5.0 in assay [1] (setting [4]), 5.0 in assay [1] (setting [5]) and 9.0 in assay [1] (setting [6]). Besides, the CYPIR in the assay with Cyperus iria (setting [11]) was determined as 5.0; in the assay with Cyperus iria (setting [7]), 7.0; in the assay with Cyperus iria (setting [8]) it was 7.0; in the assay with Cyperus iria (setting [9]) it was 9.0. Moreover, the CYPSE in assay [3] (setting [11]) is recorded as 0.0; in assay [3] (setting [7]), 0.0; in assay [3] (setting [8]) it was 0.0; in assay [3] (setting [9]), 2.0.

Consider `Cc1ccc(OC(C)C(=O)[O-])c(-c2nsc3ccc(-n4c(=O)cc(C(F)(F)F)n(C)c4=O)cc23)c1.[Na+]` (racemic) [Example 82, Sodium 2-{{2-{5-[3,6-dihydro-3-methyl-2,6-dioxo-4-(trifluoromethyl)-1(2H)-pyrimidinyl]-1,2-benzisothiazol-3-yl}-p-tolyl}oxy}propionate, DL-], for which the “herbicidal effect rating, ECHORC” value in assay [1] (0.0313 kg/ha, preemergence, flooded paddy, rated three to four weeks after treatment) is recorded as 9.0; in assay [1] (0.0625 kg/ha, preemergence, flooded paddy, rated three to four weeks after treatment) it was 9.0; in assay [1] (setting [14]), 9.0; in assay [1] (setting [15]), 9.0.

With `Cc1ccc(OCC(=O)NS(=O)(=O)CCl)c(-c2nsc3ccc(-n4c(=O)cc(C(F)(F)F)n(C)c4=O)cc23)c1` [Example 343], the “herbicidal effect rating, SAGPY” value in the assay with Sagittaria pygmaea, L. (setting [16]) stood at 0.0; in the assay on Sagittaria pygmaea, L. (setting [17]), 0.0; in the assay with Sagittaria pygmaea, L. (setting [18]), 0.0; in the assay on Sagittaria pygmaea, L. (setting [19]) it was 3.0. The “herbicidal effect rating, ECHORC” value in assay [1] (setting [16]) amounted to 3.0; in assay [1] (setting [17]), 6.0; in assay [1] (setting [18]), 7.0; in assay [1] (setting [19]), 9.0. Moreover, the “herbicidal effect rating, CYPIR” value in the assay on Cyperus iria (setting [20]) is listed as 0.0; with Cyperus iria (setting [21]) it was 0.0; with Cyperus iria (setting [22]), 0.0; in the assay on Cyperus iria (setting [23]) it was 6.0. Also, the “herbicidal effect rating, CYPSE” value is reported as 0.0 in assay [3] (setting [20]), 3.0 in assay [3] (setting [21]), 4.0 in assay [3] (setting [22]) and 6.0 in assay [3] (setting [23]).

With `CC(=O)OCCOC(=O)COc1ccc(C)cc1-c1nsc2ccc(-n3c(=O)cc(C(F)(F)F)n(C)c3=O)cc12` [Example 578, Acetic acid, {{2-{5-[3,6-dihydro-3-methyl-2,6-dioxo-4-(trifluoromethyl)-1(2H)-pyrimidinyl]-1,2-benzisothiazol-3-yl}-p-tolyl}oxy}-, 2-hydroxyethyl ester, acetate (ester)], the “herbicidal effect rating, SAGPY” value is 3.0 in the assay on Sagittaria pygmaea, L. (setting [24]); 6.0 in the assay with Sagittaria pygmaea, L. (setting [25]); 6.0 in the assay with Sagittaria pygmaea, L. (setting [26]); 9.0 with Sagittaria pygmaea, L. (setting [27]). The “herbicidal effect rating, ECHORC” value in assay [1] (setting [24]) is 5.0; in assay [1] (setting [25]), 6.0; in assay [1] (setting [26]), 7.0; in assay [1] (setting [27]), 9.0. Besides, the “herbicidal effect rating, CYPIR” value worked out at 4.0 in the assay on Cyperus iria (setting [28]), 5.0 in the assay on Cyperus iria (setting [29]), 5.0 with Cyperus iria (setting [30]) and 7.0 with Cyperus iria (setting [31]). The “herbicidal effect rating, CYPSE” value was determined as 3.0 in assay [3] (setting [28]), 6.0 in assay [3] (setting [29]), 6.0 in assay [3] (setting [30]) and 9.0 in assay [3] (setting [31]).

Consider `COCC(=O)OCc1nsc2ccc(-n3c(=O)cc(C(F)(F)F)n(C)c3=O)cc12` [Example 495, 2,4(1H,3H)-Pyrimidinedione, 3-[3-(hydroxymethyl)-1,2-benzisothiazol-5-yl]-1-methyl-6-(trifluoromethyl)-, methoxyacetate (ester)], for which the SAGPY herbicidal rating in the assay with Sagittaria pygmaea, L. (setting [12]) came out at 0.0; in the assay on Sagittaria pygmaea, L. (setting [13]), 0.0; in the assay on Sagittaria pygmaea, L. (setting [14]) it was 3.0. The ECHORC herbicidal rating is given as 3.0 in assay [1] (setting [12]), 4.0 in assay [1] (setting [13]), 5.0 in assay [1] (setting [14]) and 7.0 in assay [1] (setting [15]). In addition, the MOOVA herbicidal rating was found to be 7.0 in assay [2] (0.0320 kg/ha), 7.0 in assay [2] (0.0620 kg/ha), 9.0 in assay [2] (0.1250 kg/ha) and 9.0 in assay [2] (0.2500 kg/ha). The CYPIR herbicidal rating is on record as 6.0 in the assay with Cyperus iria (0.0320 kg/ha, preemergence); 6.0 in the assay on Cyperus iria (0.0620 kg/ha, preemergence); 7.0 with Cyperus iria (0.1250 kg/ha, preemergence); 9.0 with Cyperus iria (0.2500 kg/ha, preemergence).

The record behind these values is patent EP0908457B1, “3-(1,2-benzisothiazol- and isoxazol-5-Y1)-2,4(1H,3H)-pyrimidinedione or thione and 3-(1,2-benzisothiazol- and isoxazol-5-y1)-4(3H)-pyrimidinone or thione herbicidal agents” (BASF AKTIENGESELLSCHAFT, priority 1997, dated 1999).
